Test results reported in patent publication US20240308998A1, “PYRROLOPYRIDONE DERIVATIVES USEFUL IN THE TREATMENT OF CANCER” (Tay Therapeutics Limited, priority 2021, published 2024).
Counter-ions that a name gives are not always drawn.

Assays:
[1] = Intrinsic clearance in mouse liver microsomes; type: in vitro ADME; conditions: 1 uM, NADPH
Description: (§1) A 50 mM stock solution (in DMSO) was prepared for the compound. From the stock solution, a working solution of 0.5 mM was prepared by diluting the compound in DMSO. This concentration of working solution was prepared considering a final concentration of 1 uM with 0.1% DMSO. The compound (1 uL of working solution) was spiked in PBS with pH 7.4 (22 uL) at a concentration of 1 uM. Subsequently, 110 uL of 10 mM NADPH was added (as a co-factor). The sample was incubated at 37° C. for 15 min. Following this, pre-warmed mouse liver microsomes (27.5 uL; final protein conc. 0.5 mg/mL) were added. The samples were then incubated at 37° C. Aliquots of samples were withdrawn at 0, 5, 15, 30, 45 and 60 min. The reaction was stopped by using chilled acetonitrile containing internal standard. The samples were centrifuged and the supernatants analysed by LC-MS/MS. The percent compound remaining at each time point was calculated with respect to that of the 0 min sample. The data were then analysed to calculate half-life and intrinsic clearance (CLint). Note that control samples were run without NADPH and blank samples were prepared using DMSO without the test compound.

[2] = target: T1, BRD4 BD2 (Homo sapiens, UniProt O60885); test: NanoBRET bromodomain assay, BRD4 BD2; type: cell-based; conditions: for Fold selectivity BRD4 BD1/BD2: IC50 BD1/IC50 BD2; for IC50: NanoBRET, HEK293 cells transfected with NanoLuc-BRD4-BD2
T1 construct: HEK293 cells were transfected using NanoLuc-BRD4-BD1 or NanoLuc-BRD4-BD2 fusion vectors; host or cells: HEK293
Summary of the method: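 HEK293 cells transfected with NanoLuc-BRD4-BD2 fusion for 20-24 h, then treated with compound plus 1x tracer for 2 h at 37° C. Donor 450 nm / acceptor 610 nm emissions converted to background-corrected mBU; IC50 by nonlinear regression; selectivity as IC50 BD1/IC50 BD2.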

[3] = Mouse plasma stability; type: in vitro ADME; conditions: 10 μM in mouse plasma, 37° C.
Description: The stock solution of compound (10 or 50 mM) was prepared in DMSO. From the stock solution, a working solution of compound (500 uM) was prepared in DMSO (100%). To 735 μL of mouse plasma, 15 μL of working solution of compound was added—resulting in a final concentration of 10 μM (2% DMSO) for the compound. The sample was then incubated at 37° C. Aliquot was withdrawn at time-points—0, 15, 30, 60, 90 and 120 mins. The reaction was stopped by using chilled acetonitrile containing internal standard (IS). The samples were centrifuged and the supernatants analyzed using LC-MS/MS. The percent remaining of the compound at each time point was calculated with respect to the control sample (0 min time-point).

[4] = target: T2, BRD4 BD1 (Homo sapiens, UniProt O60885); test: NanoBRET bromodomain assay, BRD4 BD1; type: cell-based; conditions: HEK293 cells transfected with NanoLuc-BRD4-BD1
T2 construct: HEK293 cells were transfected using NanoLuc-BRD4-BD1 or NanoLuc-BRD4-BD2 fusion vectors; host or cells: HEK293
Summary of the method: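 Transfected HEK293 cells expressing NanoLuc-BRD4-BD1 were incubated with 1x tracer and serially diluted compound for 2 h at 37 °C, then given Nano-Glo substrate plus extracellular NanoLuc inhibitor. Donor 450 nm and acceptor 610 nm emissions were converted to background-corrected mBU, and IC50 was derived by nonlinear regression.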

[5] = Intrinsic clearance in rat liver microsomes; type: in vitro ADME; conditions: pH 7.4, NADPH, read-out: Rat Microsomal Stability T½
Description: as §1, with “pre-warmed rat” for “pre-warmed mouse”, “calculate half-life.” for “calculate half-life and intrinsic clearance (CLint).”, “test Compound.” for “test compound.”

[6] = Balb/c mouse pharmacokinetics after oral (PO) dosing; type: in vivo; conditions: male, plasma, 5 mg/kg, Casette
Description: Compounds were formulated in 5% DMSO, 40% PEG-400, 55% Milli-Q water at a concentration of 0.5 mg/mL for 5 mg/kg and 3 mg/mL for 30 mg/kg PO dosing. […] Blood was sampled at various timepoints and plasma isolated. 10 μL of plasma with 5 μL of blank Balb/c mouse plasma were added to 200 μL of acetonitrile containing IS mixture. The samples were vortexed for 30 s. After centrifugation at 4 degree Celsius, 3900 rpm for 15 min, the supernatant was diluted 3 times with water. 20 μL of diluted supernatant was injected into the LC/MS/MS system for quantitative analysis and concentration of analyte determined by comparison with matrix matched standard curve. WinNonlin (Phoenix™, version 8.3) or other similar software was used for pharmacokinetic calculations.

Structure (SMILES) | Mouse Microsomal Stability (intrinsic clearance) [1] | Fold selectivity BRD4 BD1/BD2 [2] | IC50 [2] | Mouse Plasma Stability % remaining at 120 minutes [3] | IC50 [4] | half-life at 1 uM [5] | Cmax [6] | bioavailability [6]
CCNC(=O)c1cc2c(-c3ccn(C)c(=O)c3Oc3c(C)cc(F)cc3C)cn(C)c(=O)c2[nH]1 [Comparative Example A, reference compound] | 0.9 ml/min/g liver | xx (Fold >50 and ≤200) | 0.05 to 0.2 µM | 7% | > 1 µM |  |  | 
Cc1cc(-c2cc3c(-c4cc(=O)n(C)cc4Oc4c(C)cccc4C)cn(C)c(=O)c3[nH]2)cc(C)n1 [Example 17, 4-(5-(2,6-dimethylphenoxy)-1-methyl-2-oxo-1,2-dihydropyridin-4-yl)-2-(2,6-dimethylpyridin-4-yl)-6-methyl-1,6-dihydro-7H-pyrrolo[2,3-c] pyridin-7-one.TFA] |  | xxx (Fold >200) | ≤ 0.05 µM | 42% | > 1 µM | > 1 h |  | 
Cc1cccc(C)c1Oc1cn(C)c(=O)cc1-c1cn(C)c(=O)c2[nH]c(-c3ccccc3F)cc12 [Example 14, 4-(5-(2,6-dimethylphenoxy)-1-methyl-2-oxo-1,2-dihydropyridin-4-yl)-2-(2-fluorophenyl)-6-methyl-1,6-dihydro-7H-pyrrolo[2,3-c] pyridin-7-one] |  | xxx (Fold >200) | ≤ 0.05 µM | 99% | > 1 µM | > 1 h |  | 
Cc1cnc(-c2cc3c(-c4cc(=O)n(C)cc4-c4ccccc4)cn(C)c(=O)c3[nH]2)[nH]1 [Example 5, 6-methyl-2-(5-methyl-1H-imidazol-2-yl)-4-(1-methyl-2-oxo-5-phenyl-1,2-dihydropyridin-4-yl)-1,6-dihydro-7H-pyrrolo [2,3-c] pyridin-7-one] | 0.6 ml/min/g liver | xx (Fold >50 and ≤200) | 0.05 to 0.2 µM |  | > 1 µM |  |  | 
Cc1cccc(C)c1Oc1cn(C)c(=O)cc1-c1cn(C)c(=O)c2[nH]c(-c3cn(C(C)C)nc3C#N)cc12 [Example 49, 4-{4-[5-(2,6-dimethylphenoxy)-1-methyl-2-oxopyridin-4-yl]-6-methyl-7-oxo-1H-pyrrolo[2,3-c]pyridin-2-yl}-1-isopropylpyrazole-3-carbonitrile] |  | xx (Fold >50 and ≤200) | ≤ 0.05 µM |  | 0.05 to 0.5 µM |  | 19.3 ng/mL | 7.81%
Cc1cccc(C)c1Oc1cn(C)c(=O)cc1-c1cn(C)c(=O)c2[nH]c(-c3cnn(C(C)C)c3)cc12 [Example 11, 4-(5-(2,6-dimethylphenoxy)-1-methyl-2-oxo-1,2-dihydropyridin-4-yl)-2-(1-isopropyl-1H-pyrazol-4-yl)-6-methyl-1,6-dihydro-7H-pyrrolo[2,3-c] pyridin-7-one] |  | xx (Fold >50 and ≤200) | ≤ 0.05 µM | 98% | 0.05 to 0.5 µM | > 1 h |  | 
Cc1cc(F)cc(C)c1Oc1c(-c2cn(C)c(=O)c3[nH]c(C(=O)NC(C)(C)C)cc23)ccn(C)c1=O [Comparative Example B, reference compound] | 5.1 ml/min/g liver |  |  | 100% |  |  |  | 

The remaining lines, values ahead:

Mouse Microsomal Stability (intrinsic clearance) [1] | Fold selectivity BRD4 BD1/BD2 [2] | IC50 [2] | Mouse Plasma Stability % remaining at 120 minutes [3] | IC50 [4] | half-life at 1 uM [5] | Cmax [6] | bioavailability [6] | Structure (SMILES)
0.7 ml/min/g liver | xxx (Fold >200) | ≤ 0.05 µM | 95% | > 1 µM |  |  |  | Cc1cnc(-c2cc3c(-c4cc(=O)n(C)cc4Oc4c(C)cccc4C)cn(C)c(=O)c3[nH]2)[nH]1 [Example 1, 4-(5-(2,6-dimethylphenoxy)-1-methyl-2-oxo-1,2-dihydropyridin-4-yl)-6-methyl-2-(5-methyl-1H-imidazol-2-yl)-1,6-dihydro-7H-pyrrolo [2,3-c] pyridin-7-one]
 | xxx (Fold >200) | ≤ 0.05 µM | 84% | > 1 µM | > 1 h |  |  | Cc1cc(-c2cc3c(-c4cc(=O)n(C)cc4Oc4c(C)cccc4C)cn(C)c(=O)c3[nH]2)n(C)n1 [Example 7, 2-(1,3-dimethyl-1H-pyrazol-5-yl)-4-(5-(2,6-dimethylphenoxy)-1-methyl-2-oxo-1,2-dihydropyridin-4-yl)-6-methyl-1,6-dihydro-7H-pyrrolo[2,3-c] pyridin-7-one]
0.9 ml/min/g liver | xx (Fold >50 and ≤200) | ≤ 0.05 µM | 100% | > 1 µM |  |  |  | Cc1cccc(C)c1Oc1cn(C)c(=O)cc1-c1cn(C)c(=O)c2[nH]c(-c3ncc[nH]3)cc12 [Example 2, 4-(5-(2,6-dimethylphenoxy)-1-methyl-2-oxo-1,2-dihydropyridin-4-yl)-2-(1H-imidazol-2-yl)-6-methyl-1,6-dihydro-7H-pyrrolo [2,3-c] pyridin-7-one]
0.6 ml/min/g liver | x (Fold >2 and ≤50) | 0.2 to 1 µM |  | > 1 µM |  |  |  | Cc1cccc(C)c1Oc1cn(C)c(=O)cc1-c1cn(C)c(=O)c2[nH]c(C3=NCCN3)cc12 [Example 4, 2-(4,5-dihydro-1H-imidazol-2-yl)-4-(5-(2,6-dimethylphenoxy)-1-methyl-2-oxo-1,2-dihydropyridin-4-yl)-6-methyl-1,6-dihydro-7H-pyrrolo[2,3-c]pyridin-7-one]
0.5 ml/min/g liver | xxx (Fold >200) | ≤ 0.05 µM | 77% | > 1 µM |  |  |  | Cc1cccc(C)c1Oc1cn(C)c(=O)cc1-c1cn(C)c(=O)c2[nH]c(-c3ncc(C(F)(F)F)[nH]3)cc12 [Example 3, 4-(5-(2,6-dimethylphenoxy)-1-methyl-2-oxo-1,2-dihydropyridin-4-yl)-6-methyl-2-(5-(trifluoromethyl)-1H-imidazol-2-yl)-1,6-dihydro-7H-pyrrolo[2,3-c] pyridin-7-one]
 | xxx (Fold >200) | ≤ 0.05 µM |  | > 1 µM |  | 718 ng/mL | 100% | Cc1cccc(C)c1Oc1cn(C)c(=O)cc1-c1cn(C)c(=O)c2[nH]c(-c3ccc(F)cc3F)cc12 [Example 47, 2-(2,4-difluorophenyl)-4-(5-(2,6-dimethylphenoxy)-1-methyl-2-oxo-1,2-dihydropyridin-4-yl)-6-methyl-1,6-dihydro-7H-pyrrolo[2,3-c] pyridin-7-one]
